Here are results for six molecules from ChEMBL document CHEMBL5214991, “Discovery of 4-methyl-3-(pyridin-2-ylamino)benzamide derivatives as C-Abl inhibitors with potential neuroprotective effect” (Bioorg Med Chem, 2022).

SMILES strings stand for the structures. The source made the active and inactive calls. The rule behind the calls is not given here.

Data set [1] in a line: Cytotoxicity against human SH-SY5Y cells incubated for 48 hrs and measured by MTT assay. The format is toxicity, cell-based. Background: Formazan colour is commonly taken as a measure of viable cells.
The nature of data set [2]: Cytotoxicity against rat H9c2 cells incubated for 48 hrs and measured by MTT assay. The format is toxicity, cell-based.
A short description of data set [3]: Cytotoxicity against HEK293 cells incubated for 48 hrs and measured by MTT assay. The note with it: human. It is filed as toxicity, cell-based.
The nature of data set [4]: Cytotoxicity against human L02 cells incubated for 48 hrs and measured by MTT assay. It is filed as toxicity, cell-based.
For data set [5], the system named is SH-SY5Y. The data set is described as follows: Neuroprotective activity against MPP+-induced cell death in human SH-SY5Y cells assessed as increase in cell viability at 0.08 to 20 uM measured after 48 hrs by propidium iodide staining method. The format is functional, cell-based. As to conditions: dose 0.08-20 µM.
Data set [6] relates to SH-SY5Y. The data set is described as follows: Neuroprotective activity against MPP+-induced cell death in human SH-SY5Y cells assessed as reduction in apoptosis at 1.25 to 5 uM measured after 48 hrs by propidium iodide staining method. The format is functional, cell-based. The note with it: dose 1.25-5 µM.
A short description of data set [7]: AUC (0 to t) in male Sprague-Dawley rat at 5 mg/kg, iv measured by LC-MS/MS analysis. The format is ADME, organism-based. Set-up: dose 5 mg/kg, route iv. The note with it: in vivo.
A short description of data set [8]: AUC (0 to infinity) in male Sprague-Dawley rat at 5 mg/kg, iv measured by LC-MS/MS analysis. As to conditions: in vivo. Set-up: time infinity, dose 5 mg/kg, route iv. It is filed as ADME, organism-based.
Data set [9] in a line: MRT (0 to t) in male Sprague-Dawley rat at 5 mg/kg, iv measured by LC-MS/MS analysis. The format is ADME, organism-based. As to conditions: in vivo.
Data set [10] in a line: MRT (0 to infinity) in male Sprague-Dawley rat at 5 mg/kg, iv measured by LC-MS/MS analysis. The note with it: in vivo. The format is ADME, organism-based.
Data set [11] is described as follows: Half-life in male Sprague-Dawley rat at 5 mg/kg, iv measured by LC-MS/MS analysis. The note with it: in vivo. The format is ADME, organism-based.
Data set [12] is described as follows: Clearance in male Sprague-Dawley rat at 5 mg/kg, iv measured by LC-MS/MS analysis. It is filed as ADME, organism-based. The note with it: in vivo.
A short description of data set [13]: Volume of distribution at steady state in male Sprague-Dawley rat at 5 mg/kg, iv measured by LC-MS/MS analysis. The format is ADME, organism-based. As to conditions: in vivo, read-out: Vdss.
A short description of data set [14]: AUC (0 to t) in male Sprague-Dawley rat at 20 mg/kg, po measured by LC-MS/MS analysis. It is filed as ADME, organism-based. Also on record: dose 20 mg/kg, route po. As to conditions: in vivo.
Data set [15] can be described thus: AUC (0 to infinity) in male Sprague-Dawley rat at 20 mg/kg, po measured by LC-MS/MS analysis. The format is ADME, organism-based. Set-up: time infinity, dose 20 mg/kg, route po. As to conditions: in vivo.
Data set [16] is described as follows: MRT (0 to t) in male Sprague-Dawley rat at 20 mg/kg, po measured by LC-MS/MS analysis. The format is ADME, organism-based. As to conditions: in vivo.
The nature of data set [17]: MRT (0 to infinity) in male Sprague-Dawley rat at 20 mg/kg, po measured by LC-MS/MS analysis. It is filed as ADME, organism-based. As to conditions: in vivo.
Data set [18] can be described thus: Half-life in male Sprague-Dawley rat at 20 mg/kg, po measured by LC-MS/MS analysis. The format is ADME, organism-based. The note with it: in vivo.
The nature of data set [19]: Tmax in male Sprague-Dawley rat at 20 mg/kg, po measured by LC-MS/MS analysis. The format is ADME, organism-based. The note with it: in vivo.
The nature of data set [20]: Cmax in male Sprague-Dawley rat at 20 mg/kg, po measured by LC-MS/MS analysis. The format is ADME, organism-based. Set-up: dose 20 mg/kg, route po. The note with it: in vivo.
Data set [21] is described as follows: Oral bioavailability in male Sprague-Dawley rat at 20 mg/kg measured by LC-MS/MS analysis. As to conditions: in vivo. The format is ADME, organism-based.
Data set [22] in a line: Ratio of drug concentration in brain to plasma in male Sprague-Dawley rat at […], iv measured by LC-MS/MS analysis. The format is ADME, organism-based. The note with it: dose 5 mg/kg, read-out: BPR.

Take `Cc1ccc(C(=O)Nc2cc(-c3cnn(C)c3)cc(C(F)(F)F)c2)cc1Nc1cc(-c2cncnc2)ccn1`: the IC50 at 48 h in data set [1], in [2], in [3] and in data set [4] was above 80 µM each time. Moreover, the outcome in the data set with SH-SY5Y [5] was Active.
In the case of `Cc1ccc(C(=O)Nc2ccc(CN3CCN(C)CC3)c(C(F)(F)F)c2)cc1Nc1cc(-c2cccnc2)ccn1`, the IC50 (as a rule, the concentration at which inhibition is half-maximal) at 48 h in data set [1] was found to be 19 µM; in data set [2] it was 9.12 µM; in data set [3] it was 14 µM; in data set [4] it was 37.4 µM. Besides, in the data set on SH-SY5Y [5], the outcome was Active.
For `Cc1ccc(C(=O)Nc2ccc(CN3CCN(C)CC3)c(C(F)(F)F)c2)cc1Nc1cc(-c2cncnc2)ccn1`, in that order: 12 µM, 16.7 µM, 17.1 µM, 30.1 µM and “Active”.
For `Cc1cn(-c2cc(NC(=O)c3ccc(C)c(Nc4cc(-c5cccnc5)ccn4)c3)cc(C(F)(F)F)c2)cn1`, in that order: above 80 µM, above 80 µM, above 80 µM, above 80 µM and “Active”.
Take `Cc1ccc(C(=O)Nc2cc(-c3cnn(C)c3)cc(C(F)(F)F)c2)cc1Nc1cc(-c2cccnc2)ccn1`: the IC50 at 48 h in [1], in data set [2], in data set [3] and in [4] was above 80 µM in each case. In addition, the result with SH-SY5Y [5] and in the data set on SH-SY5Y [6] was Active. Also, the exposure AUC(0-t) (in general, the area under the concentration-time curve up to a stated or last time point) in [7] was found to be 5.12 µg·h/mL; in data set [14], 9.89 µg·h/mL. The total exposure AUC(0-inf) (as a rule, total exposure, with the tail of the curve extrapolated) is 5.2 µg·h/mL in [8] and 9.9 µg·h/mL in data set [15]. For the same molecule, the values for the MRT last in [9] and in data set [16] were 5.29 h and 5.9 h, respectively. Moreover, the MRT inf (commonly the average time that molecules of a dose stay in the body) is 5.29 h in data set [10] and 5.93 h in [17]. Moreover, the half-life (commonly the time in which the quantity being followed falls by half) in data set [11] is 3.62 h; in data set [18] it was 3.54 h. Besides, the clearance (usually a measure of how efficiently the substance is removed, as volume per time) in [12] came to 1.06 L/h/kg. Also, the Vd in [13] worked out at 5.36 L/kg. Moreover, the Tmax (usually the time from dosing to the highest level) in [19] was 2.33 h. The peak level in data set [20] (Cmax) was 1.38 µg/mL. For the same molecule, the bioavailability – broadly, dose-corrected exposure relative to a reference, in per cent – in data set [21] was found to be 47.6%. Besides, in data set [22], the Kp is 4.
For the molecule `Cc1cn(-c2cc(NC(=O)c3ccc(C)c(Nc4nccc(-c5cccnc5)n4)c3)cc(C(F)(F)F)c2)cn1` [NILOTINIB], the 50% inhibitory concentration (IC50) at 48 h in [1] amounted to 38.5 µM; in [2] it was 21.3 µM; in data set [3], 8.4 µM; in data set [4], 40.4 µM. Further, the outcome in the data set on SH-SY5Y [5] was Active. Besides, in data set [21], the bioavailability was determined as 27.1%.
